Test results taken from article PMC10610023, “Nucleoside Analog 2′,3′-Isopropylidene-5-Iodouridine as Novel Efficient Inhibitor of HIV-1” (Pharmaceutics, 2023).
Read-outs that look alike come from different tables or passages of the source.

What was measured:
[1] = Cell viability analysis, Trypan blue staining, Jurkat cells; assay type: cell-based, human; details: human, 72 h
Method: (§1) In this study, we used Jurkat and CEM-ss (human T-lymphoblastic leukemia) cells cultured in RPMI-1640 medium and HEK293T (human embryonic kidney cells) cells cultured in a DMEM medium. Growth medium was supplemented with 10% FBS (fetal bovine serum), 2 mM L-glutamine, 1mM sodium pyruvate, 100 μg/mL of streptomycin, and 100 units/mL of penicillin (Gibco/Invitrogen Life technologies). Cells were cultured at 37 °C in a humidified atmosphere with 5% CO2.
(§2) Palbociclib was dissolved in H2O. At 72 h after treatment, cell viability was assessed by staining with a 0.4% Trypan blue solution (Invitrogene Corp., Carlsbad, CA, USA) by counting in a Neubauer chamber. CC50s were calculated by nonlinear regression with variable slope (four parameters) and robust fitting using the GraphPad Prism software v.8.4.3 (GraphPad Software, San Diego, CA, USA).

[2] = test system: Jurkat cells; test: as above; assay type: cell-based, human
Method: as §1, §2

[3] = Cell viability analysis, Trypan blue staining, CEM-ss cells; assay type: cell-based, human; details: human, CEM-ss cells, 0–30 μM
Method: as §1, §2

[4] = test system: CEM-ss cells; test: as above; assay type: cell-based, human; details: 72 h, concentrations up to 30 μM
Method: as §1, §2

[5] = test system: HIV-1 based replication-defective lentiviral particles; test: microbe, parasite or virus in culture; assay type: cell-based; details: for EC50: Human immunodeficiency virus 1, CEM-SS, 72 h
[6] = test system: HIV-1 based replication-defective lentiviral particles; test: microbe, parasite or virus in culture; assay type: cell-based; details: for EC50: Human immunodeficiency virus 1, Jurkat, 72 h
[7] = test system: HIV-1 based replication-defective lentiviral particles; test: Drug combination analysis Palbociclib with AZT or 2f, VP-GFP transduction of Jurkat cells; assay type: cell-based; details: for drug interaction with Palbociclib (ZIP synergy): pre-treated with Palbociclib 12 h; for inhibition at 0.0029 µM / inhibition at 0.0059 µM / inhibition at 0.0117 µM: Human immunodeficiency virus 1, Jurkat, read-out: Inhibition efficiency, %, Jurkat
Method: At 48 h post treatment with viral particles encoding marker GFP, the transduction efficiency was measured by flow cytometry (Figure 6E). In both combinations, Palbociclib was used in concentrations of ~3 nM, ~6 nM, or ~12 nM. […] Then, the dose-response matrixes were used to calculate synergy scores using ZIP algorithm (Figure 6F,G).

[8] = test system: HIV-1 based replication-defective lentiviral particles; test: Drug combination analysis AZT with 2f, VP-GFP transduction of CEM-ss cells; details: AZT and 2f in combination, up to 30 μM each
Method: (§4) In our experiments, we decided not to exceed the concentration of 30 μM of each drug in order to exclude the possible side effects of DMSO; concentration in a well for these experiments was not more than 0.06%. The equivalent concentration of DMSO (0.06%) was used in control samples of cells not treated with drugs. […] At 72 h after transduction, the percentage of eGFP-positive cells was determined by flow cytometry (LSR Fortessa, BD Biosciences, Heidelberg, Germany). […] Analysis of the eGFP positive cells percentage was performed with FlowJo software 10.0.7 (FlowJo LLC, Ashland, OR, USA).
(§5) For this we used both compounds at the wide range of concentrations.
(§6) Next, the synergy distribution plots were generated and analyzed using the Synergy Finder v3.0 web source. We used the ZIP model to calculate synergy scores that were used to interpret drug interaction relationships. Scores larger than 10 mean that the interaction between two drugs is synergistic. Scores up to 10 mean that the interaction is likely to be additive.

[9] = test system: HIV-1 based replication-defective lentiviral particles; test: Drug combination analysis AZT with 2f, VP-GFP transduction of Jurkat cells
Method: as §4, §5, §6

[10] = test system: Jurkat cells; test: Apoptosis analysis, Annexin V-FITC/PI staining, Jurkat cells; assay type: cell-based, human; details: 72 h, concentrations up to 12 nM
Method: (§3) Apoptosis was measured by double staining with Annexin V-FITC (Invitrogene, Thermo Scientific, Waltham, MA, USA) and propidium iodide (PI) (Sigma, Cibolo, TX, USA) 72 h after transduction. To measure the distribution of cells in the phases of the cell cycle, Jurkat cells were fixed in ethanol and stained with propidium iodide. All measurements were performed on an LSR Fortessa flow cytometer (BD Biosciences, San Jose, CA, USA). […] Analysis of cell cycle rate was performed with ModFit LT software v.4.1.7 (Verity Software House, Topsham, ME, USA).

[11] = test system: Jurkat cells; test: Cell cycle analysis, propidium iodide staining, Jurkat cells; assay type: cell-based, human; details: concentrations up to 12 nM
Method: as §3

[12] = 72 h, concentrations up to 30 μM

With CC1(C)O[C@@H]2[C@H](O1)[C@@H](CO)O[C@H]2n1cc(F)c(=O)[nH]c1=O [2c, 2′,3′-O-isopropylidene-5-fluorouridine] the CC50 at 72 h ([1]; 0–30 μM) was 7.9 ± 0.6 µM, the “effect on cell survival” value [2, 12] was “significant suppressive effect on the survival” and the CC50 at 72 h [3] was 8.4 ± 2.2 µM. The “effect on cell survival” value [4] was “significant suppressive effect on the survival”.

With CC1(C)O[C@@H]2[C@H](O1)[C@@H](CO)O[C@H]2n1cc(Br)c(=O)[nH]c1=O [2e, 2′,3′-O-isopropylidene-5-bromouridine] the EC50 [5] was > 30 µM, the CC50 at 72 h ([1]; 0–30 μM) was > 30 µM and the CC50 at 72 h [3] was > 30 µM. For the same compound, the EC50 [6] was > 30 µM.

In the case of Cc1cn([C@H]2C[C@H](N=[N+]=[N-])[C@@H](CO)O2)c(=O)[nH]c1=O [AZT, 3′-Azido-2′,3′-dideoxythymidine, reference compound], the “cells remaining GFP positive (plateau effect)” value ([5]; CEM-ss, from 2 μM up to 30 μM) is reported as “about 20%”, the EC50 [5] is reported as 0.0122 ± 0.0114 µM and the “drug interaction with Palbociclib (ZIP synergy)” value ([7]; Jurkat) is reported as “no synergistic action”. For the same compound, the CC50 at 72 h ([1]; Jurkat cells, 0–30 μM) was > 30 µM, the “effect on cell survival” value [2, 12] was “did not affect cell survival” and the CC50 at 72 h [3] was > 30 µM. The “effect on cell survival” value [4] was “did not affect cell survival”, the EC50 [6] was 0.4 ± 0.1 µM and the “cells remaining GFP positive (plateau effect)” value ([6]; Jurkat, from 2 μM up to 30 μM) was “about 30%”.

With CC1(C)O[C@@H]2[C@H](O1)[C@@H](CO)O[C@H]2n1cc(I)c(=O)[nH]c1=O [2f, 2′,3′-O-isopropylidene-5-ioduridine] the EC50 [5] was 13.1 ± 1.3 µM, the “drug interaction with Palbociclib (ZIP synergy)” value ([7]; Jurkat) was “acts synergistically” and the “drug interaction (ZIP synergy, SynergyFinder)” value [8] was “do not act synergistically”. The CC50 at 72 h ([1]; 0–30 μM) was > 30 µM, the CC50 at 72 h [3] was > 30 µM and the “suppression of VP-GFP transduction efficiency” value (“suppression” for short) ([9]; 2f 12 μM supplemented with AZT 12 μM, compared with 2f alone 30 μM (90%)) was “same activity”. For the same compound, the “drug interaction (ZIP synergy, SynergyFinder)” value ([9]; AZT and 2f in combination, up to 30 μM each) was “do not act synergistically”, the “suppression” value ([9]; compound alone, 12 μM) was 70% and the “suppression” value ([9]; compound alone, 30 μM) was 90%. For the same compound, the “effect on transduction efficiency of HIV-1 lentiviral particles (VP-GFP)” value [6] was “caused the suppression of the transduction efficiency” and the EC50 [6] was 10.5 ± 1.2 µM.

In the case of CC(=O)c1c(C)c2cnc(Nc3ccc(N4CCNCC4)cn3)nc2n(C2CCCC2)c1=O [Palbociclib], the induction of apoptosis [10] is reported as “does not cause the induction of apotosis”, the inhibition at 0.0029 µM ([7]; Palbociclib alone 2.9 nM (2f 0 nM, matrix of panel G)) is reported as 10.8% and the inhibition at 0.0029 µM ([7]; Palbociclib alone 2.9 nM (AZT 0 nM, matrix of panel F)) is reported as 8.03%. It also gave an inhibition at 0.0059 µM ([7]; Palbociclib alone 5.9 nM (2f 0 nM, matrix of panel G)) of 5.66%, an inhibition at 0.0059 µM ([7]; Palbociclib alone 5.9 nM (AZT 0 nM, matrix of panel F)) of 8.75% and an inhibition at 0.0117 µM ([7]; Palbociclib alone 11.7 nM (2f 0 nM, matrix of panel G)) of 3.9%. For the same compound, the inhibition at 0.0117 µM ([7]; Palbociclib alone 11.7 nM (AZT 0 nM, matrix of panel F)) was 0.83%, the “suppressive effect on transduction efficiency of VP-GFP” value ([7]; Jurkat, Palbociclib alone, ~3, ~6 or ~12 nM) was “not more than 10%” and the CC50 at 72 h ([1]; Jurkat cells, Palbociclib 0–6 μM) was 0.141 ± 0.0256 µM. For the same compound, the “effect on cell survival” value ([2]; concentrations up to 12 nM) was “not to affect cell survival” and the “effect on cell cycle progression” value [11] was “did not find any effect on cell cycle progression”.

For CC1(C)O[C@@H]2[C@H](O1)[C@@H](CO)O[C@H]2n1cc(Cl)c(=O)[nH]c1=O [2d, 2′,3′-O-isopropylidene-5-chlorouridine], the EC50 [5] was > 30 µM, the CC50 at 72 h ([1]; 0–30 μM) was > 30 µM and the CC50 at 72 h [3] was > 30 µM. The EC50 [6] was > 30 µM.

In the case of CC1(C)O[C@@H]2[C@H](O1)[C@@H](CO)O[C@H]2n1ccc(=O)[nH]c1=O [2a, 2′,3′-O-isopropylideneuridine], the EC50 [5] is reported as > 30 µM, the CC50 at 72 h ([1]; 0–30 μM) is reported as > 30 µM and the CC50 at 72 h [3] is reported as > 30 µM. The EC50 [6] was > 30 µM.

For Cc1cn([C@@H]2O[C@H](CO)[C@H]3OC(C)(C)O[C@H]32)c(=O)[nH]c1=O [2b, 2′,3′-O-isopropylidene-5-methyluridine], the EC50 [5] was > 30 µM, the CC50 at 72 h ([1]; 0–30 μM) was > 30 µM and the CC50 at 72 h [3] was > 30 µM. For the same compound, the EC50 [6] was > 30 µM.
